Experiment: Adverse events graded by NCI CTCAE v4.0, all reported regardless of attribution
Format: in vivo, human

CC(=O)c1c(C)c2cnc(Nc3ccc(N4CCNCC4)cn3)nc2n(C2CCCC2)c1=O [palbociclib]
24: Platelet count decreased, episodes (Stratum II, overall)
3: Diarrhea, patients (Stratum I, grade 1) | Headache, patients (Stratum I, grade 1) | Nausea, patients (Stratum I, grade 1) | Headache, episodes (Stratum I, grade 2) | White blood cell decreased, patients (Stratum I, grade 3) | Diarrhea, patients (Stratum I, overall) | Mucositis oral, patients (Stratum I, overall) | Nausea, patients (Stratum I, overall) | Alanine aminotransferase increased, episodes (Stratum II, grade 1) | Dizziness, episodes (Stratum II, grade 1) | Electrocardiogram qt corrected interval prolonged, episodes (Stratum II, grade 1) | Vomiting, patients (Stratum II, grade 1) | Lymphocyte count decreased, patients (Stratum II, grade 2) | Platelet count decreased, patients (Stratum II, grade 2) | Alanine aminotransferase increased, episodes (Stratum II, overall) | Constipation, episodes (Stratum II, overall) | Dizziness, patients (Stratum II, overall) | Electrocardiogram qt corrected interval prolonged, episodes (Stratum II, overall)
27: Neutrophil count decreased, episodes (Stratum I, grade 3)
17: Lymphocyte count decreased, episodes (Stratum I, grade 2) | White blood cell decreased, patients (Stratum I, overall) | Anemia, episodes (Stratum II, grade 1)
38: White blood cell decreased, episodes (Stratum II, overall)
5(5): Ataxia, episodes (Stratum I, overall) | Ataxia, patients (Stratum I, overall)
1(1): Ataxia, episodes (Stratum I, grade 1) | Ataxia, patients (Stratum I, grade 1) | Hypokalemia, episodes (Stratum I, grade 2) | Hypokalemia, patients (Stratum I, grade 2) | Nausea, episodes (Stratum I, grade 2) | Nausea, patients (Stratum I, grade 2) | Vomiting, episodes (Stratum I, grade 2) | Vomiting, patients (Stratum I, grade 2) | Ataxia, episodes (Stratum I, grade 3) | Ataxia, patients (Stratum I, grade 3) | Gait disturbance, episodes (Stratum I, grade 3) | Gait disturbance, patients (Stratum I, grade 3) | Nausea, episodes (Stratum I, grade 3) | Nausea, patients (Stratum I, grade 3) | Vomiting, episodes (Stratum I, grade 3) | Vomiting, patients (Stratum I, grade 3) | Constipation, episodes (Stratum II, grade 1) | Constipation, patients (Stratum II, grade 1) | Headache, episodes (Stratum II, grade 1) | Headache, patients (Stratum II, grade 1) | Mucositis oral, episodes (Stratum II, grade 1) | Mucositis oral, patients (Stratum II, grade 1) | Pain, episodes (Stratum II, grade 1) | Pain, patients (Stratum II, grade 1) | Dizziness, episodes (Stratum II, grade 2) | Dizziness, patients (Stratum II, grade 2) | Headache, episodes (Stratum II, grade 2) | Headache, patients (Stratum II, grade 2) | Mucositis oral, episodes (Stratum II, grade 2) | Mucositis oral, patients (Stratum II, grade 2) | Pain, episodes (Stratum II, grade 3) | Pain, patients (Stratum II, grade 3) | Vomiting, episodes (Stratum II, grade 3) | Vomiting, patients (Stratum II, grade 3) | Neutrophil count decreased, episodes (Stratum II, grade 4) | Neutrophil count decreased, patients (Stratum II, grade 4) | Platelet count decreased, episodes (Stratum II, grade 4) | Platelet count decreased, patients (Stratum II, grade 4)
13: Lymphocyte count decreased, patients (Stratum I, overall) | White blood cell decreased, episodes (Stratum II, grade 1) | Neutrophil count decreased, episodes (Stratum II, grade 3)
22: Lymphocyte count decreased, episodes (Stratum I, grade 1)
2: Mucositis oral, patients (Stratum I, grade 1) | Headache, patients (Stratum I, grade 2) | Mucositis oral, patients (Stratum I, grade 2) | Alanine aminotransferase increased, patients (Stratum II, grade 1) | Dizziness, patients (Stratum II, grade 1) | Electrocardiogram qt corrected interval prolonged, patients (Stratum II, grade 1) | Constipation, episodes (Stratum II, grade 2) | Alanine aminotransferase increased, patients (Stratum II, overall) | Constipation, patients (Stratum II, overall) | Electrocardiogram qt corrected interval prolonged, patients (Stratum II, overall)
1: Constipation, patients (Stratum II, grade 2)
37: White blood cell decreased, episodes (Stratum I, grade 2)
myelosuppression: most common toxicity (Stratum I and II)
26: Neutrophil count decreased, episodes (Stratum I, grade 2)
9: White blood cell decreased, patients (Stratum I, grade 1) | Neutrophil count decreased, patients (Stratum I, grade 3) | Anemia, episodes (Stratum I, overall) | Fatigue, patients (Stratum I, overall) | Anemia, patients (Stratum II, grade 1) | White blood cell decreased, patients (Stratum II, grade 2) | Neutrophil count decreased, patients (Stratum II, grade 3)
11: Neutrophil count decreased, patients (Stratum II, overall) | White blood cell decreased, patients (Stratum II, overall)
39: Neutrophil count decreased, episodes (Stratum II, overall)
15: Neutrophil count decreased, patients (Stratum I, overall)
20: Anemia, episodes (Stratum II, overall)
2(2): Anemia, episodes (Stratum I, grade 2) | Anemia, patients (Stratum I, grade 2) | Gait disturbance, episodes (Stratum I, grade 2) | Gait disturbance, patients (Stratum I, grade 2) | Aspartate aminotransferase increased, episodes (Stratum II, grade 1) | Aspartate aminotransferase increased, patients (Stratum II, grade 1) | Fatigue, episodes (Stratum II, grade 1) | Fatigue, patients (Stratum II, grade 1) | Hypercalcemia, episodes (Stratum II, grade 1) | Hypercalcemia, patients (Stratum II, grade 1) | Hyperkalemia, episodes (Stratum II, grade 1) | Hyperkalemia, patients (Stratum II, grade 1) | Fatigue, episodes (Stratum II, grade 2) | Fatigue, patients (Stratum II, grade 2) | Headache, episodes (Stratum II, grade 3) | Headache, patients (Stratum II, grade 3) | Platelet count decreased, episodes (Stratum II, grade 3) | Platelet count decreased, patients (Stratum II, grade 3) | Aspartate aminotransferase increased, episodes (Stratum II, overall) | Aspartate aminotransferase increased, patients (Stratum II, overall) | Hypercalcemia, episodes (Stratum II, overall) | Hypercalcemia, patients (Stratum II, overall) | Hyperkalemia, episodes (Stratum II, overall) | Hyperkalemia, patients (Stratum II, overall) | Mucositis oral, episodes (Stratum II, overall) | Mucositis oral, patients (Stratum II, overall) | Pain, episodes (Stratum II, overall) | Pain, patients (Stratum II, overall)
64: Neutrophil count decreased, episodes (Stratum I, overall)
10: Platelet count decreased, patients (Stratum I, grade 1) | Fatigue, episodes (Stratum I, overall) | Mucositis oral, episodes (Stratum I, overall) | Platelet count decreased, patients (Stratum I, overall) | Lymphocyte count decreased, episodes (Stratum II, grade 1) | Neutrophil count decreased, patients (Stratum II, grade 2) | Anemia, patients (Stratum II, overall)
16: Platelet count decreased, episodes (Stratum II, grade 1)
18: White blood cell decreased, episodes (Stratum II, grade 2)
6: Constipation, patients (Stratum I, grade 1) | Constipation, patients (Stratum I, overall) | Hypokalemia, episodes (Stratum I, overall) | Nausea, episodes (Stratum I, overall) | Neutrophil count decreased, episodes (Stratum II, grade 1) | Lymphocyte count decreased, episodes (Stratum II, grade 2) | White blood cell decreased, patients (Stratum II, grade 3) | Vomiting, episodes (Stratum II, overall)
8: Constipation, episodes (Stratum I, grade 1) | Lymphocyte count decreased, patients (Stratum I, grade 1) | Neutrophil count decreased, episodes (Stratum I, grade 1) | Constipation, episodes (Stratum I, overall) | Platelet count decreased, patients (Stratum II, grade 1) | Platelet count decreased, patients (Stratum II, overall)
4: Diarrhea, episodes (Stratum I, grade 1) | Headache, episodes (Stratum I, grade 1) | Hypokalemia, patients (Stratum I, grade 1) | Nausea, episodes (Stratum I, grade 1) | Vomiting, patients (Stratum I, grade 1) | Lymphocyte count decreased, patients (Stratum I, grade 2) | Diarrhea, episodes (Stratum I, overall) | Headache, patients (Stratum I, overall) | Neutrophil count decreased, patients (Stratum II, grade 1) | Dizziness, episodes (Stratum II, overall) | Vomiting, patients (Stratum II, overall)
28: Platelet count decreased, episodes (Stratum I, grade 1) | Platelet count decreased, episodes (Stratum I, overall)
12: Lymphocyte count decreased, episodes (Stratum I, grade 3)
7(7): Fatigue, episodes (Stratum I, grade 1) | Fatigue, patients (Stratum I, grade 1)
5: Anemia, patients (Stratum I, grade 1) | Hypokalemia, episodes (Stratum I, grade 1) | Mucositis oral, episodes (Stratum I, grade 1) | Neutrophil count decreased, patients (Stratum I, grade 1) | Vomiting, episodes (Stratum I, grade 1) | Mucositis oral, episodes (Stratum I, grade 2) | Hypokalemia, patients (Stratum I, overall) | Vomiting, patients (Stratum I, overall) | Lymphocyte count decreased, patients (Stratum II, grade 1) | Vomiting, episodes (Stratum II, grade 1) | White blood cell decreased, patients (Stratum II, grade 1) | Platelet count decreased, episodes (Stratum II, grade 2)
3(3): Dry skin, episodes (Stratum I, grade 1) | Dry skin, patients (Stratum I, grade 1) | Ataxia, episodes (Stratum I, grade 2) | Ataxia, patients (Stratum I, grade 2) | Fatigue, episodes (Stratum I, grade 2) | Fatigue, patients (Stratum I, grade 2) | Muscle weakness left-sided, episodes (Stratum I, grade 3) | Muscle weakness left-sided, patients (Stratum I, grade 3) | Neutrophil count decreased, episodes (Stratum I, grade 4) | Neutrophil count decreased, patients (Stratum I, grade 4) | Dry skin, episodes (Stratum I, overall) | Dry skin, patients (Stratum I, overall) | Gait disturbance, episodes (Stratum I, overall) | Gait disturbance, patients (Stratum I, overall) | Muscle weakness left-sided, episodes (Stratum I, overall) | Muscle weakness left-sided, patients (Stratum I, overall) | Anorexia, episodes (Stratum II, grade 1) | Anorexia, patients (Stratum II, grade 1) | Hypokalemia, episodes (Stratum II, grade 1) | Hypokalemia, patients (Stratum II, grade 1) | Anemia, episodes (Stratum II, grade 2) | Anemia, patients (Stratum II, grade 2) | Lymphocyte count decreased, episodes (Stratum II, grade 3) | Lymphocyte count decreased, patients (Stratum II, grade 3) | Seizure, episodes (Stratum II, grade 3) | Seizure, patients (Stratum II, grade 3) | Anorexia, episodes (Stratum II, overall) | Anorexia, patients (Stratum II, overall) | Hypokalemia, episodes (Stratum II, overall) | Hypokalemia, patients (Stratum II, overall) | Seizure, episodes (Stratum II, overall) | Seizure, patients (Stratum II, overall)
14: White blood cell decreased, episodes (Stratum I, grade 1) | White blood cell decreased, patients (Stratum I, grade 2)
51: Lymphocyte count decreased, episodes (Stratum I, overall)
7: Anemia, episodes (Stratum I, grade 1) | Neutrophil count decreased, patients (Stratum I, grade 2) | Lymphocyte count decreased, patients (Stratum I, grade 3) | Anemia, patients (Stratum I, overall) | Headache, episodes (Stratum I, overall) | Vomiting, episodes (Stratum I, overall) | White blood cell decreased, episodes (Stratum II, grade 3) | Lymphocyte count decreased, patients (Stratum II, overall)
70: White blood cell decreased, episodes (Stratum I, overall)
4(4): Alanine aminotransferase increased, episodes (Stratum I, grade 1) | Alanine aminotransferase increased, patients (Stratum I, grade 1) | Alanine aminotransferase increased, episodes (Stratum I, overall) | Alanine aminotransferase increased, patients (Stratum I, overall) | Fatigue, episodes (Stratum II, overall) | Fatigue, patients (Stratum II, overall) | Headache, episodes (Stratum II, overall) | Headache, patients (Stratum II, overall)
19: White blood cell decreased, episodes (Stratum I, grade 3) | Neutrophil count decreased, episodes (Stratum II, grade 2) | Lymphocyte count decreased, episodes (Stratum II, overall)
